Laboratory results as given in PubChem BioAssay AID248 (DTP/NCI, 2004).
Where “and” joins values, the source holds several entries; their conditions need not be identical. Equal entries are not always repeated. Toxic doses and inconclusive results are not listed. Cut-off read from the data, not from the text of the source: active = T/C of 150% or more; inactive = T/C below 125%.

Tested on: L1210 leukemia ip in BDF1 mice, survival T/C
Assay: NCI In Vivo Anticancer Drug Screen. Data for tumor model L1210 Leukemia (intraperitoneal) in B6D2F1 (BDF1) mice
Settings: endpoint: mean survival time, higher = longer survival
In short: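 Antitumor effect is assessed in tumor-bearing animals. Survival in the compound arm is compared with a vehicle-dosed control arm and expressed as their quotient.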

[1] = dose: 100.0 mg/kg/injection, schedule: Q01DX001 (ip), vehicle: saline
[2] = dose: 200.0 mg/kg/injection, schedule: Q01DX001 (ip), vehicle: saline
[3] = dose: 50.0 mg/kg/injection, schedule: Q01DX001 (ip), vehicle: carboxymethylcellulose (CMC)
[4] = dose: 100.0 mg/kg/injection, schedule: Q01DX001 (ip), vehicle: carboxymethylcellulose (CMC)
[5] = dose: 200.0 mg/kg/injection, schedule: Q01DX001 (ip), vehicle: carboxymethylcellulose (CMC)
[6] = dose: 400.0 mg/kg/injection, schedule: Q01DX001 (ip), vehicle: carboxymethylcellulose (CMC)
[7] = dose: 100.0 mg/kg/injection, schedule: Q04DX003 (ip), vehicle: saline with Tween-80
[8] = dose: 200.0 mg/kg/injection, schedule: Q04DX003 (ip), vehicle: saline with Tween-80
[9] = dose: 400.0 mg/kg/injection, schedule: Q04DX003 (ip), vehicle: saline with Tween-80
[10] = dose: 100.0 mg/kg/injection, schedule: Q01DX009 (ip), vehicle: saline
[11] = dose: 100.0 mg/kg/injection, schedule: Q04DX003 (ip), vehicle: Klucel (hydroxypropylcellulose) (HPC)
[12] = dose: 200.0 mg/kg/injection, schedule: Q01DX009 (ip), vehicle: saline
[13] = dose: 200.0 mg/kg/injection, schedule: Q04DX003 (ip), vehicle: Klucel (hydroxypropylcellulose) (HPC)
[14] = dose: 400.0 mg/kg/injection, schedule: Q01DX009 (ip), vehicle: saline
[15] = dose: 400.0 mg/kg/injection, schedule: Q04DX003 (ip), vehicle: Klucel (hydroxypropylcellulose) (HPC)
[16] = dose: 100.0 mg/kg/injection, schedule: Q01DX009 (ip), vehicle: Klucel (hydroxypropylcellulose) (HPC)
[17] = dose: 200.0 mg/kg/injection, schedule: Q01DX009 (ip), vehicle: Klucel (hydroxypropylcellulose) (HPC)
[18] = dose: 400.0 mg/kg/injection, schedule: Q01DX009 (ip), vehicle: Klucel (hydroxypropylcellulose) (HPC)
[19] = dose: 100.0 mg/kg/injection, schedule: Q01DX009 (ip), vehicle: saline with Tween-80
[20] = dose: 200.0 mg/kg/injection, schedule: Q01DX009 (ip), vehicle: saline with Tween-80
[21] = dose: 400.0 mg/kg/injection, schedule: Q01DX009 (ip), vehicle: saline with Tween-80

Measured: T/C

O=[N+]([O-])c1sc2ccccc2c1/C=C/c1csc2ccccc12
inactive: [1] 87 % of control | [2] 91 % of control | dose: 400.0 mg/kg/injection, schedule: Q01DX001 (ip), vehicle: saline 97 % of control

Cc1cccc(NC(=O)NCCN(C)Cc2ccccc2)c1
inactive: [3] 101 % of control | [4] 98 % of control | [5] 101 % of control | [6] 104 % of control

COC(=O)CCC(C(=O)CN1C(=O)c2ccccc2C1=O)N1C(=O)c2ccccc2C1=O (configuration not stated)
inactive: [7] 96 % of control | [8] 92 % of control | [9] 92 % of control

Nc1nc(N)c(-c2ccc(Cl)cc2)c(CNc2ccc([N+](=O)[O-])cc2)n1
inactive: [7] 109 % of control | [8] 95 % of control | [9] 95 % of control

CC(=O)Nc1cc(Cl)cc2c1-c1ccc(Cl)cc1C2N(C)C (configuration not stated)
inactive: [3] 98 % of control | [4] 90 % of control | [5] 106 % of control | [6] 98 % of control

CCCCCCCCCCCCCCCCN(C(C)C)S(=O)(=O)c1ccc(Cl)c(N)c1
inactive: [10] 89 % of control | [11] 98 % of control | [12] 89 % of control | [13] 96 % of control | [14] 102 % of control | [15] 89 % of control

CCN(CCCl)c1ccc(N=Nc2cc(Cl)ccc2Cl)cc1
inactive: [16] 103 % of control | [11] 104 % of control | [17] 115 % of control | [13] 97 % of control | [18] 105 % of control | [15] 104 % of control

O=P(c1ccccc1)(c1ccccc1)C(Nc1ccc(Cl)cc1)c1ccco1 (configuration not stated)
inactive: dose: 400.0 mg/kg/injection, schedule: Q01DX009 (ip), vehicle: gum acacia 92 % of control

CC(C)(O)C(CO)c1ccccc1 (configuration not stated)
inactive: [1] 96 % of control

CCOC(=O)CCC(NC(=O)c1cc(Cl)c(N(C)S(=O)(=O)c2ccc(C)cc2)cc1Cl)C(=O)OCC (configuration not stated)
inactive: dose: 100.0 mg/kg/injection, schedule: Q01DX001 (ip), vehicle: Klucel (hydroxypropylcellulose) (HPC) 107 % of control | [19] 94 % of control | dose: 200.0 mg/kg/injection, schedule: Q01DX001 (ip), vehicle: Klucel (hydroxypropylcellulose) (HPC) 108 % of control | [20] 97 % of control | dose: 400.0 mg/kg/injection, schedule: Q01DX001 (ip), vehicle: Klucel (hydroxypropylcellulose) (HPC) 102 % of control | [21] 94 % of control

CN(C)c1ccc(/C=C/c2ccc3ccccc3[n+]2C)cc1
inactive: dose: 1.5 mg/kg/injection, schedule: Q01DX009 (ip), vehicle: Klucel (hydroxypropylcellulose) (HPC) 103 % of control | dose: 3.0 mg/kg/injection, schedule: Q01DX009 (ip), vehicle: Klucel (hydroxypropylcellulose) (HPC) 97 % of control | dose: 3.12 mg/kg/injection, schedule: Q01DX009 (ip), vehicle: Klucel (hydroxypropylcellulose) (HPC) 100 % of control | dose: 6.0 mg/kg/injection, schedule: Q04DX003 (ip), vehicle: Klucel (hydroxypropylcellulose) (HPC) 107 % of control | dose: 6.25 mg/kg/injection, schedule: Q01DX009 (ip), vehicle: Klucel (hydroxypropylcellulose) (HPC) 104 % of control | dose: 12.0 mg/kg/injection, schedule: Q04DX003 (ip), vehicle: Klucel (hydroxypropylcellulose) (HPC) 107 % of control | dose: 12.5 mg/kg/injection, schedule: Q01DX009 (ip), vehicle: Klucel (hydroxypropylcellulose) (HPC) 107 % of control | dose: 25.0 mg/kg/injection, schedule: Q01DX009 (ip), vehicle: Klucel (hydroxypropylcellulose) (HPC) 96 % of control | dose: 25.0 mg/kg/injection, schedule: Q04DX003 (ip), vehicle: Klucel (hydroxypropylcellulose) (HPC) 86 % of control | [1] 112 % of control | [2] 121 % of control

CC(C)N(C)C(C)(C)CO
inactive: dose: 100.0 mg/kg/injection, schedule: Q04DX003 (ip), vehicle: saline sonified 92 % of control | dose: 200.0 mg/kg/injection, schedule: Q04DX003 (ip), vehicle: saline sonified 106 % of control

COC(=O)C1CC2c3ccccc3C1c1ccccc12 (configuration not stated)
inactive: [19] 110 % of control | [11] 108 % of control | dose: 176.0 mg/kg/injection, schedule: Q01DX001 (ip), vehicle: carboxymethylcellulose (CMC) 96 % of control and 92 % of control | [20] 89 % of control | [13] 97 % of control | dose: 264.0 mg/kg/injection, schedule: Q01DX001 (ip), vehicle: carboxymethylcellulose (CMC) 93 % of control | [6] 95 % of control | [21] 95 % of control | [15] 93 % of control | dose: 600.0 mg/kg/injection, schedule: Q01DX001 (ip), vehicle: carboxymethylcellulose (CMC) 98 % of control

CN(C)C(=O)C(=O)c1c[nH]c2ccccc12
inactive: dose: 100.0 mg/kg/injection, schedule: Q04DX002 (ip), vehicle: Klucel (hydroxypropylcellulose) (HPC) 118 % of control | dose: 200.0 mg/kg/injection, schedule: Q04DX002 (ip), vehicle: Klucel (hydroxypropylcellulose) (HPC) 109 % of control | dose: 400.0 mg/kg/injection, schedule: Q04DX002 (ip), vehicle: Klucel (hydroxypropylcellulose) (HPC) 109 % of control

O=C(NC1CCCCC1)OCCOc1ccccc1
inactive: [16] 95 % of control | [17] 103 % of control | [18] 97 % of control

c1ccc(CNc2ncn[nH]2)cc1
inactive: dose: 50.0 mg/kg/injection, schedule: Q01DX009 (ip), vehicle: saline with Tween-80 95 % of control | [19] 103 % of control | [20] 95 % of control

Nc1c(Br)cc(Br)cc1C(=O)O
inactive: dose: 100.0 mg/kg/injection, schedule: Q01DX001 (ip), vehicle: other 97 % of control | dose: 200.0 mg/kg/injection, schedule: Q01DX001 (ip), vehicle: other 97 % of control

CC(C)(CCc1ccccn1)C(=O)C(CCc1ccccn1)CCc1ccccn1
inactive: dose: 222.0 mg/kg/injection, schedule: Q01DX Z (ip), vehicle: saline 110 % of control | dose: 333.0 mg/kg/injection, schedule: Q01DX Z (ip), vehicle: saline 102 % of control | dose: 500.0 mg/kg/injection, schedule: Q01DX Z (ip), vehicle: saline 96 % of control

CCN1CCC2=C(CCCC2O)C1 (configuration not stated)
inactive: dose: 75.0 mg/kg/injection, schedule: Q01DX001 (ip), vehicle: steriod suspending solution 104 % of control | dose: 150.0 mg/kg/injection, schedule: Q01DX001 (ip), vehicle: steriod suspending solution 98 % of control

COc1ccc2c(c1)c1c(C)c3cnccc3c(C)c1n2CCCN1C(=O)c2ccccc2C1=O
inactive: dose: 50.0 mg/kg/injection, schedule: Q04DX003 (ip), vehicle: saline with Tween-80 94 % of control | [19] 96 % of control | [7] 92 % of control | [20] 101 % of control | [8] 93 % of control | dose: 400.0 mg/kg/injection, schedule: Q01DX001 (oral), vehicle: saline with Tween-80 110 % of control | [21] 101 % of control | [9] 94 % of control | dose: 800.0 mg/kg/injection, schedule: Q01DX001 (oral), vehicle: saline with Tween-80 108 % of control | dose: 1600.0 mg/kg/injection, schedule: Q01DX001 (oral), vehicle: saline with Tween-80 112 % of control

Nc1ccncn1
inactive: dose: 100.0 mg/kg/injection, schedule: Q01DX005 (ip), vehicle: saline 94 % of control | [10] 99 % of control | dose: 100.0 mg/kg/injection, schedule: Q04DX002 (ip), vehicle: saline 96 % of control | dose: 200.0 mg/kg/injection, schedule: Q01DX005 (ip), vehicle: saline 97 % of control | [12] 96 % of control | dose: 200.0 mg/kg/injection, schedule: Q04DX002 (ip), vehicle: saline 96 % of control | dose: 400.0 mg/kg/injection, schedule: Q01DX005 (ip), vehicle: saline 105 % of control | [14] 96 % of control | dose: 400.0 mg/kg/injection, schedule: Q04DX002 (ip), vehicle: saline 100 % of control

O=[N+]([O-])c1cc([N+](=O)[O-])c(Br)cc1Cl
inactive: dose: 10.0 mg/kg/injection, schedule: Q04DX003 (ip), vehicle: Klucel (hydroxypropylcellulose) (HPC) 93 % of control | dose: 20.0 mg/kg/injection, schedule: Q04DX003 (ip), vehicle: Klucel (hydroxypropylcellulose) (HPC) 96 % of control
